From ChEMBL document CHEMBL3407479, “Structure-activity relationship for the oxadiazole class of antibiotics” (J Med Chem, 2015)
Converted amounts (≈) assume the structure as drawn.

Tests used:
[1] = Plasma protein binding in human by equilibrium dialysis assay
Staphylococcus aureus = test: Antibacterial activity against methicillin-sensitive Staphylococcus aureus ATCC 29213 after 16 to 20 hrs by broth microdilution method; assay type: functional

SMILES | MIC (Staphylococcus aureus) [µg/mL] | fraction unbound [1]
Cc1onc(-c2ccccc2)c1C(=O)N[C@@H]1C(=O)N2[C@@H]1SC(C)(C)[C@@H]2C(=O)O [OXACILLIN] |  | < 0.09
FC(F)(F)c1ccc(Oc2ccc(-c3noc(-c4n[nH]cc4Br)n3)cc2)cc1 | 1 (≈ 2.22 µM) | 
COc1ccc(-c2nc(-c3ccc(Oc4ccc(F)cc4)cc3)no2)cc1[N+](=O)[O-] | ≥ 128 | 
CCOP(=O)(OCC)c1ccc(-c2nc(-c3ccc(Oc4ccc(F)cc4)cc3)no2)cc1 | ≥ 128 | 
CCn1ccc(-c2nc(-c3ccc(Oc4ccc(F)cc4)cc3)no2)n1 | ≥ 128 | 
O=c1[nH]c(-c2ccc(Oc3ccccc3)cc2)no1 | ≥ 128 | 
c1ccc(Oc2ccc(-c3noc(C4CCOCC4)n3)cc2)cc1 | ≥ 128 | 

Now from value to compound, other results behind:

MIC (Staphylococcus aureus) [µg/mL] | SMILES | fraction unbound [1]
≥ 128 | Oc1ccc(-c2nc(-c3ccc(Oc4ccc(C(F)(F)F)cc4)cc3)no2)cn1 | 
≥ 128 | COc1cc(-c2nc(-c3ccc(Oc4ccc(C(F)(F)F)cc4)cc3)no2)ccc1O | 
≥ 128 | NCCCCc1nc(-c2ccc(Oc3ccccc3)cc2)no1 | 
4 (≈ 9.23 µM) | Nc1c(F)cc(-c2nc(-c3ccc(Oc4ccc(C(F)(F)F)cc4)cc3)no2)cc1F | 
